Several values for one entry are separate records, joined by “and”; a condition that tells them apart may be missing. Equal entries are not always repeated. Entries after “also recorded” stand apart in the source; their conditions may differ.
How the values were obtained:
[1] = test system: SARS-COV-2; format: cell-based
[2] = target: Hu-1 S-RBD (Severe acute respiratory syndrome coronavirus 2, UniProt P0DTC2); assay: microscale thermophoresis (MST), S-RBD alone; format: binding, SARS-COV-2
[3] = MTT cell viability assay, HEK293T-hACE2; format: cell-based; settings: human, HEK293T-hACE2 cells
Description: (§1) The MTT cell viability assay of the preferred embodiment utilized HEK-293T-hACE2. UNCN1T. Vero-STAT1 knockout, and Calu-3 cells seeded at the density of 20,000 cells/well in a 96-well plate containing 100 μl complete media specific for each cell type. Cells were incubated for 12 h at 37° C., in a humidified 5% CO2 incubator for adherence. After 12-h incubation, the media was replaced with fresh media, and HEK-293T-hACE2 cells were treated with the five compounds at concentrations ranging between 0.001 to 100 μM. The Calu-3. […] Untreated cells were considered a negative control, and DMSO treated cells were considered vehicle controls. After the treatment, cells were incubated at 37° C., in humidified 5% CO2 incubator. Seventy-two hour posttreatment. 20 μl of MTT substrate (5 mg/ml) was added to each well and incubated for 4 additional hours at 37° C., in the dark. Then the culture media was carefully removed, and blue formazan crystals were dissolved in 200 μl of DMSO, and the purple color was read at 595 nm with a reference filter of 620 nm.

[4] = in vitro; format: cell-based; settings: African green monkey, Vero-STAT1 knockout cells, MTT
Description: as §1

[5] = MTT cell viability assay, UNCN1T; format: cell-based; settings: human, UNCN1T cells
Description: as §1

[6] = MTT cell viability assay, Calu-3; format: cell-based; settings: human, Calu-3 cells
Description: as §1

[7] = test system: pseudotyped lentiviral particles expressing Spike glycoprotein of SARS-COV-2; assay: microbe, parasite or virus in culture; format: cell-based
[8] = test system: SARS-COV-2; format: cell-based; remark: listed apart in the source
[9] = target: ACE2: SARS-COV-2 Spike RBD (Homo sapiens, UniProt Q9BYF1); assay: ACE2: SARS-COV-2 Spike RBD inhibitor screening assay (ELISA kit); set-up: species or system SARS-COV-2 / human; settings: tested 0.25 to 5 μM in triplicate; read-out: IC50, inhibition of binding of SARS-COV-2 Spike RBD to ACE2
Chain of ACE2: SARS-COV-2 Spike RBD (Q9BYF1 18-740): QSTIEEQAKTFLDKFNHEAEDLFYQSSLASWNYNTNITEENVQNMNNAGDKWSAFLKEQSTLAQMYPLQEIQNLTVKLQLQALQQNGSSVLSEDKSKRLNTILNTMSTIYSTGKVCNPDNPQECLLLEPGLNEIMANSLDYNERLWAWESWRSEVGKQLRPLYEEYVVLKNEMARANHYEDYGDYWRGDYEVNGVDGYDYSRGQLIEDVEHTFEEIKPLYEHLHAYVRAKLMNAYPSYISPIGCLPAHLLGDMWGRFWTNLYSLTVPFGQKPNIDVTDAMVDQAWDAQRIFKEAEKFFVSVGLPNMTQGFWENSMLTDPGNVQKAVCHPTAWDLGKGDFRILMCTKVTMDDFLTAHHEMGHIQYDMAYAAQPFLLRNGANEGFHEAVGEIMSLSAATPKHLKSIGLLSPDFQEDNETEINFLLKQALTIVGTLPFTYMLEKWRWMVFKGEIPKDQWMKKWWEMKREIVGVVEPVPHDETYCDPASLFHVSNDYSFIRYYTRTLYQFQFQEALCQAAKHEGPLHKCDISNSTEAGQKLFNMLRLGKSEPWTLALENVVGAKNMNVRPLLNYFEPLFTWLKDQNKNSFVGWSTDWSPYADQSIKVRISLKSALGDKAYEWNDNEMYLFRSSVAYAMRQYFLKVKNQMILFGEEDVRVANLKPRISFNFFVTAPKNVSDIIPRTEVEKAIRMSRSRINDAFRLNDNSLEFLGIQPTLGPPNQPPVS

[10] = test system: SARS-COV-2; assay: antiviral activity against live SARS-COV-2 in UNCN1T cells (RT-qPCR); format: cell-based; settings: read-out: IC50, inhibition of SARS-COV-2 replication
[11] = test system: SARS-COV-2; assay: microbe, parasite or virus in culture; format: cell-based; settings: read-out: IC50, inhibition of SARS-COV-2 replication
[12] = Severe acute respiratory syndrome coronavirus 2

Structure (SMILES) | CC50 at 72 h [3] | CC50 at 72 h [4] | CC50 at 72 h [5] | CC50 at 72 h [6] | pseudotype viral entry inhibition [7] | SARS-COV-2 infection compared with vehicle controls [8] | reduction in SARS-COV-2 infectivity [8] | IC50 [9] | also measured
CCC(CC)COC(=O)[C@H](C)N[P@](=O)(OC[C@H]1O[C@@](C#N)(c2ccc3c(N)ncnn23)[C@H](O)[C@@H]1O)Oc1ccccc1 [RDV, remdesivir] | – | – | – | – | – | – | – | – | reduction in dosages in RDV/formula (IIa) combination [1]: ≥ 2.3 fold
O=C1Nc2cc(C(F)(F)F)ccc2Oc2ccsc21 [formula (IIa), 7-(trifluoromethyl)benzo[b]-thieno[2,3-f][1,4]oxazepin-10(9H)-one] | > 100 µM | 7.13 µM | > 100 µM | > 100 µM | significant and robust viral entry inhibition | no significant difference | ~40% | – | binding to S-RBD alone [2]: does not binding; also recorded: does not bind; IC50 ([7]; Severe acute respiratory syndrome coronavirus 2, 48 h, read-out: IC50, inhibition of entry of pseudotyped lentiviral particles): 0.84 µM
CN1C(=O)c2ccccc2[S+]([O-])c2cc([N+](=O)[O-])ccc2S1(=O)=O (stereo not shown) [formula (Ia), 6-methyl-2-nitrodibenzo[d,g]-[1,6,2]dithiazocin-7(6H)-one 5,5, 12-trioxide] | > 100 µM | 6.21 µM | > 100 µM | > 100 µM | low level of viral entry inhibition | no significant difference | ~40% | < 0.25 µM and ≥ 0.25 µM | IC50 [10, 12]: 0.67 µM; IC50 [10]: 1.16 µM; IC50 [11, 12]: 5.35 µM; IC50 [11]: 2.94 µM
CCn1c(SCC(=O)N2CCCc3ccccc32)nnc1-c1cccs1 [formula (V), 1-(3,4-dihydroquinolin-1(2H)-yl)-2-((4-ethyl-5-(thiophen-2-yl)-4H-1,2,4-triazol-3-yl)lhio)elhanone] | > 100 µM | – | – | – | – | – | – | 1.91 µM | –
OC(CNCCNc1ncccc1C(F)(F)F)Cn1ccc2ccccc21 (stereo not shown) [formula (VI), 1-(1H-indol-1-yl)-3-((2-((3-(trifluoromethyl)pyridin-2-yl)amino)ethyl)amino)-propan-2-ol] | > 100 µM | – | – | – | – | – | – | > 5 µM | –
CN(C)/C=C1\N=C(c2cccnc2Oc2ccc(Cl)cc2)OC1=O [formula (VII), (Z)-2-(2-(4-chlorophenoxy)-pyridin-3-yl)-4-((dimethyl-amino)methylene)oxazol-5(4H)-one] | > 100 µM | – | – | – | – | – | – | > 5 µM | –

— US20240277730A1, “SUPPRESSION OF COVID-19 REPLICATION BY COVID-19 ENTRY INHIBITORS” (Board of Regents of the University of Nebraska, priority 2021, published 2024)
